PubChem BioAssay (NCI)
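Following 48 hours of exposure in 96-well plates, responses at five concentrations were used to interpolate endpoints linearly. Definition used: TGI = concentration required for complete inhibition of growth.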

Tests used:
Experiment in all cases: growth of human tumour cells (NCI), 48 h
MDA-MB-435 = tested on: MDA-MB-435
SR leukemia = tested on: SR leukemia
A549 NSCLC = tested on: A549 NSCLC
HOP-62 NSCLC = tested on: HOP-62 NSCLC
MDA-N = tested on: MDA-N
OVCAR-3 ovarian = tested on: OVCAR-3 ovarian
UACC-257 melanoma = tested on: UACC-257 melanoma
MALME-3M melanoma = tested on: MALME-3M melanoma
ACHN renal = tested on: ACHN renal
HCC-2998 colon = tested on: HCC-2998 colon
U251 CNS = tested on: U251 CNS
SK-OV-3 ovarian = tested on: SK-OV-3 ovarian
786-0 renal = tested on: 786-0 renal
HOP-92 NSCLC = tested on: HOP-92 NSCLC
SN12C renal = tested on: SN12C renal
SF-295 CNS = tested on: SF-295 CNS
RXF 393 renal = tested on: RXF 393 renal
SK-MEL-28 melanoma = tested on: SK-MEL-28 melanoma

Row | Structure (SMILES) | TGI (MDA-MB-435) [µM] | TGI (SR leukemia) [µM] | TGI (A549 NSCLC) [µM] | TGI (HOP-62 NSCLC) [µM] | TGI (MDA-N) [µM] | TGI (OVCAR-3 ovarian) [µM] | TGI (UACC-257 melanoma) [µM] | TGI (MALME-3M melanoma) [µM] | TGI (ACHN renal) [µM] | TGI (HCC-2998 colon) [µM] | TGI (U251 CNS) [µM] | TGI (SK-OV-3 ovarian) [µM] | TGI (786-0 renal) [µM] | TGI (HOP-92 NSCLC) [µM] | TGI (SN12C renal) [µM] | TGI (SF-295 CNS) [µM] | TGI (RXF 393 renal) [µM] | TGI (SK-MEL-28 melanoma) [µM]
1 | CN(/N=C/c1ccc(Cl)cc1)C1=NCCCCN1 | > 100 | > 100 | > 100 | > 100 | > 100 | > 100 | > 100 | > 100 | > 100 | > 100 | > 100 | > 100 | > 100 | > 100 | > 100 | > 100 | – | –
2 | COc1ccc(C2=C(Cl)c3cc(OC)c(OC)cc3C2)cc1OC | – | > 100 | > 100 | > 100 | – | – | > 100 | > 100 | > 100 | > 100 | > 100 | > 100 | > 100 | > 100 | > 100 | > 100 | 73.7 | > 100
3 | O=C1C=C(O)c2c(O)ccc(O)c2C1=O | > 100 | – | > 100 | > 100 | > 100 | > 100 | > 100 | > 100 | > 100 | > 100 | > 100 | > 100 | > 100 | > 100 | – | > 100 | > 100 | > 100
4 | N#Cc1cc([N+](=O)[O-])ccc1NC(=O)C(=O)C(C(=O)c1ccc2ccccc2c1)C1OCc2ccccc21 (centres undefined) | – | 16.9 | > 89 | 15.6 | – | > 47.6 | 28.2 | 26.8 | > 71.1 | 22.7 | 16.8 | > 100 | 14.7 | 21.6 | 46.5 | 23.9 | 12.4 | 21.4
5 | CC(C)C1=C(Cc2ccccc2)C(=O)O/C1=C\c1ccc(O)c(Cl)c1 | 30.7 | 26.9 | 28.4 | 31.7 | 30.1 | 28 | 32.8 | 30.6 | 28.1 | 28.7 | 30.3 | 33.7 | 30.5 | – | 30.7 | 29.5 | 31.2 | 30.9
6 | OC(C1CCCCCCCCCC1)C(O)C1CCCCCCCCCC1 (centres undefined) | > 100 | > 100 | > 100 | > 100 | > 100 | > 100 | > 100 | > 100 | > 100 | > 100 | > 100 | > 100 | > 100 | – | > 100 | > 100 | > 100 | > 100
7 | CCC(=O)N1C(=O)C(CC)(CC)C(=O)N1C(=O)CC | > 100 | > 100 | > 100 | > 100 | > 100 | > 100 | > 100 | > 100 | > 100 | > 100 | > 100 | > 100 | > 100 | – | > 100 | > 100 | > 100 | > 100
